Data from patent US10144732B2 (BIOGEN MA INC., priority 2014, dated 2018).
Values joined by “and” are separate entries in the source; they are usually repeats but may differ in a detail not shown here. Identical values can stand only once. Counter-ions that a name gives are not always drawn.

Molecular target: T1, Human ATX protein (Homo sapiens, UniProt Q13822)
T1 construct: made in house
Assay: ATX biochemical assay (FRET, FS-3 substrate)
Conditions: FRET assay, FS-3 2 μM, ATX 1.0 μg/mL, 30 minutes preincubation, 2 hours reaction at room temperature; read-out: IC50
Summary of the method: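 FRET read-out: cleavage of FS-3 (2 μM final) unquenches fluorescein, measured at 485/538 nm after 2 h at room temperature. Before substrate addition, in-house-expressed human autotaxin (1.0 μg/mL) sat with compound for 30 min in pH 7.4 Tris/NaCl/KCl/CaCl2/MgCl2 buffer containing fatty acid free-BSA at 1 mg/mL.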

Row | Structure (SMILES) | IC50
1 | NC12CCC(C(=O)N3CCc4c(C(F)(F)F)nn(Cc5ccc(F)cc5)c4C3)(CC1)CC2 [Example 9-9, (4-Aminobicyclo[2.2.2]octan-1-yl)(1-(4-fluorobenzyl)-3-(trifluoromethyl)-4,5-dihydro-1H-pyrazolo[3,4-c]pyridin-6(7H)-yl)methanone TFA salt] | 0.1 to 0.25 µM
2 | O=C(C[C@H]1CC[C@@H](C(=O)O)CC1)N1CCc2c(C(F)(F)F)nn(CCC3CCCCC3)c2C1 [Example 7-21, cis-4-(2-(1-(2-Cyclohexylethyl)-3-(trifluoromethyl)-4,5-dihydro-1H-pyrazolo[3,4-c]pyridin-6(7H)-yl)-2-oxoethyl)cyclohexanecarboxylic acid] | ≤ 0.1 µM
3 | O=C(C[C@H]1CC[C@H](C(=O)O)CC1)N1CCc2c(C(F)(F)F)nn(Cc3cncnc3)c2C1 [Example 5-29, trans-4-(2-Oxo-2-(1-(pyrimidin-5-ylmethyl)-3-(trifluoromethyl)-4,5-dihydro-1H-pyrazolo[3,4-c]pyridin-6(7H)-yl)ethyl)cyclohexanecarboxylic acid] | > 0.5 µM and ≤ 10 µM
4 | NC(=O)c1nn(Cc2ccc(F)cc2)c2c1CCN(C(=O)C[C@H]1CC[C@H](C(=O)O)CC1)C2 [Example 5-47, trans-4-(2-(3-Carbamoyl-1-(4-fluorobenzyl)-4,5-dihydro-1H-pyrazolo[3,4-c]pyridin-6(7H)-yl)-2-oxoethyl)cyclohexanecarboxylic acid] | 0.25 to 0.5 µM
5 | O=C(Cc1ccccc1)N1CCc2c(C(F)(F)F)nn(Cc3ccc(Cl)cc3F)c2C1 [Example 1-3, 1-(1-(4-Chloro-2-fluorobenzyl)-3-(trifluoromethyl)-4,5-dihydro-1H-pyrazolo[3,4-c]pyridin-6(7H)-yl)-2-phenylethanone] | ≤ 0.1 µM
6 | O=C(O)C1CCC(CC(=O)N2CCc3c(C(F)(F)F)nn(Cc4cccc(F)c4)c3C2)CC1 (mixture of isomers) [Example 6-1, 4-(2-(1-(3-Fluorobenzyl)-3-(trifluoromethyl)-4,5-dihydro-1H-pyrazolo[3,4-c]pyridin-6(7H)-yl)-2-oxoethyl)cyclohexanecarboxylic acid] | ≤ 0.1 µM
7 | O=C(O)C1CCN(CC(=O)N2CCc3c(C(F)(F)F)nn(Cc4ccc(F)cc4)c3C2)C1 (stereo not drawn) [Example 13-12, 1-(2-(1-(4-Fluorobenzyl)-3-(trifluoromethyl)-4,5-dihydro-1H-pyrazolo[3,4-c]pyridin-6(7H)-yl)-2-oxoethyl)pyrrolidine-3-carboxylic acid] | ≤ 0.1 µM
8 | NC(=O)[C@H]1CC[C@@H](CC(=O)N2CCc3c(C(F)(F)F)nn(Cc4ccc(F)cc4)c3C2)CC1 [Example 20-1, cis-4-(2-(1-(4-Fluorobenzyl)-3-(trifluoromethyl)-4,5-dihydro-1H-pyrazolo[3,4-c]pyridin-6(7H)-yl)-2-oxoethyl)cyclohexanecarboxamide] | ≤ 0.1 µM
9 | CN(C(=O)N1CCc2c(C(F)(F)F)nn(Cc3ccc(Cl)cc3F)c2C1)[C@H]1CC[C@H](C(=O)O)CC1 [Example 5-10, trans-4-(1-(4-Chloro-2-fluorobenzyl)-N-methyl-3-(trifluoromethyl)-4,5,6,7-tetrahydro-1H-pyrazolo[3,4-c]pyridine-6-carboxamido)cyclohexanecarboxylic acid] | ≤ 0.1 µM
10 | CCOC(=O)C1CCC(CC(=O)N2CCc3c(C(F)(F)F)nn(Cc4ccc(C(F)(F)F)cc4)c3C2)CC1 (stereo not drawn) [Example 1-10, Ethyl 4-(2-oxo-2-(3-(trifluoromethyl)-1-(4-(trifluoromethyl)benzyl)-4,5-dihydro-1H-pyrazolo[3,4-c]pyridin-6(7H)-yl)ethyl)cyclohexanecarboxylate] | ≤ 0.1 µM
11 | O=C(CC1CCC(N2CCC2)CC1)N1CCc2c(C(F)(F)F)nn(Cc3ccc(F)cc3)c2C1 (stereo not drawn) [Example 22-6, 2-(4-(Azetidin-1-yl)cyclohexyl)-1-(1-(4-fluorobenzyl)-3-(trifluoromethyl)-4,5-dihydro-1H-pyrazolo[3,4-c]pyridin-6(7H)-yl)ethanone TFA salt] | ≤ 0.1 µM
12 | O=C(O)CC1CN(CC(=O)N2CCc3c(C(F)(F)F)nn(Cc4ccc(Cl)cc4F)c3C2)C1 [Example 13-22, 2-(1-(2-(1-(4-Chloro-2-fluorobenzyl)-3-(trifluoromethyl)-4,5-dihydro-1H-pyrazolo[3,4-c]pyridin-6(7H)-yl)-2-oxoethyl)azetidin-3-yl)acetic acid TFA salt] | ≤ 0.1 µM
13 | O=C(C[C@H]1CC[C@H](C(=O)O)CC1)N1CCc2c(C(F)(F)F)nn(Cc3cccnc3)c2C1 [Example 5-22, trans-4-(2-Oxo-2-(1-(pyridin-3-ylmethyl)-3-(trifluoromethyl)-4,5-dihydro-1H-pyrazolo[3,4-c]pyridin-6(7H)-yl)ethyl)cyclohexanecarboxylic acid] | ≤ 0.1 µM
14 | O=C(C[C@H]1CC[C@@H](C(=O)O)CC1)N1CCc2c(C(F)(F)F)nn(Cc3ccccc3)c2C1 [Example 7-12, cis-4-(2-(1-benzyl-3-(trifluoromethyl)-4,5-dihydro-1H-pyrazolo[3,4-c]pyridin-6(7H)-yl)-2-oxoethyl)cyclohexanecarboxylic acid] | ≤ 0.1 µM
15 | O=C(Cc1ccc(F)cc1)N1CCc2c(C(F)(F)F)nn(Cc3ccc(Cl)cc3F)c2C1 [Example 1-12, 1-(1-(4-Chloro-2-fluorobenzyl)-3-(trifluoromethyl)-4,5-dihydro-1H-pyrazolo[3,4-c]pyridin-6(7H)-yl)-2-(4-fluorophenyl)ethanone] | ≤ 0.1 µM
16 | CCN1CCC(CC(=O)N2CCc3c(C(F)(F)F)nn(Cc4ccc(Cl)cc4F)c3C2)CC1 [Example 11-3, 1-(1-(4-Chloro-2-fluorobenzyl)-3-(trifluoromethyl)-4,5-dihydro-1H-pyrazolo[3,4-c]pyridin-6(7H)-yl)-2-(1-ethylpiperidin-4-yl)ethanone HCl salt] | ≤ 0.1 µM
17 | O=C(CN1CCC(C(F)(F)F)CC1)N1CCc2c(C(F)(F)F)nn(Cc3ccc(F)cc3)c2C1 [Example 12-15, 1-(1-(4-Fluorobenzyl)-3-(trifluoromethyl)-4,5-dihydro-1H-pyrazolo[3,4-c]pyridin-6(7H)-yl)-2-(4-(trifluoromethyl)piperidin-1-yl)ethanone] | ≤ 0.1 µM
18 | O=C(C[C@H]1CC[C@H](C(=O)O)CC1)N1CCc2c(C(F)(F)F)nn(Cc3ccccn3)c2C1 [Example 5-23, trans-4-(2-Oxo-2-(1-(pyridin-2-ylmethyl)-3-(trifluoromethyl)-4,5-dihydro-1H-pyrazolo[3,4-c]pyridin-6(7H)-yl)ethyl)cyclohexanecarboxylic acid] | 0.1 to 0.25 µM
19 | CN(C(=O)N1CCc2c(C(F)(F)F)nn(Cc3ccc(Cl)cc3F)c2C1)[C@H]1CC[C@@H](C(=O)O)CC1 [Example 5-9, cis-4-(1-(4-Chloro-2-fluorobenzyl)-N-methyl-3-(trifluoromethyl)-4,5,6,7-tetrahydro-1H-pyrazolo[3,4-c]pyridine-6-carboxamido)cyclohexanecarboxylic acid] | ≤ 0.1 µM
20 | CC1CC(CC(=O)N2CCc3c(C(F)(F)F)nn(Cc4ccc(Cl)cc4F)c3C2)CCN1C(=O)OC(C)(C)C (stereo not drawn) [Example 8-5, tert-Butyl 4-(2-(1-(4-chloro-2-fluorobenzyl)-3-(trifluoromethyl)-4,5-dihydro-1H-pyrazolo[3,4-c]pyridin-6(7H)-yl)-2-oxoethyl)-2-methylpiperidine-1-carboxylate] | ≤ 0.1 µM
21 | O=C(CC1CC(N2CCCCC2)C1)N1CCc2c(C(F)(F)F)nn(Cc3ccc(F)cc3)c2C1 (stereo not drawn) [Example 22-4, 1-(1-(4-Fluorobenzyl)-3-(trifluoromethyl)-4,5-dihydro-1H-pyrazolo[3,4-c]pyridin-6(7H)-yl)-2-(3-(piperidin-1-yl)cyclobutyl)ethanone TFA salt] | ≤ 0.1 µM
22 | CC1CCC(Cn2nc(C(F)(F)F)c3c2CN(C(=O)C[C@H]2CC[C@H](C(=O)O)CC2)CC3)CC1 (stereo partly drawn) [Example 5-37, trans-4-(2-(1-((4-Methylcyclohexyl)methyl)-3-(trifluoromethyl)-4,5-dihydro-1H-pyrazolo[3,4-c]pyridin-6(7H)-yl)-2-oxoethyl)cyclohexanecarboxylic acid] | ≤ 0.1 µM
23 | CCOC(=O)C1CCC(CC(=O)N2CCc3c(C(F)(F)F)nn(CC4CCCCC4)c3C2)CC1 (stereo not drawn) [Example 1-16, Ethyl 4-(2-(1-(cyclohexylmethyl)-3-(trifluoromethyl)-4,5-dihydro-1H-pyrazolo[3,4-c]pyridin-6(7H)-yl)-2-oxoethyl)cyclohexanecarboxylate] | ≤ 0.1 µM
24 | CCOC(=O)C1CCCN(CC(=O)N2CCc3c(C(F)(F)F)nn(Cc4ccc(F)cc4)c3C2)CC1 (stereo not drawn) [Example 12-16, Ethyl 1-(2-(1-(4-fluorobenzyl)-3-(trifluoromethyl)-4,5-dihydro-1H-pyrazolo[3,4-c]pyridin-6(7H)-yl)-2-oxoethyl)azepane-4-carboxylate TFA salt] | ≤ 0.1 µM
25 | O=C(O)CN1CCC(C(=O)N2CCc3c(C(F)(F)F)nn(Cc4ccc(Cl)cc4F)c3C2)C1 (stereo not drawn) [Example 15-5, 2-(3-(1-(4-Chloro-2-fluorobenzyl)-3-(trifluoromethyl)-4,5,6,7-tetrahydro-1H-pyrazolo[3,4-c]pyridine-6-carbonyl)pyrrolidin-1-yl)acetic acid TFA salt] | ≤ 0.1 µM

Same assay, conditions: IC50, FRET assay, FS-3 2 μM, ATX 1.0 μg/mL, 30 minutes preincubation, 2 hours reaction at room temperature

Row | Structure (SMILES) | IC50 [µM]
26 | CC(C)(C)OC(=O)N1C2CCC1CC(CC(=O)N1CCc3c(C(F)(F)F)nn(Cc4ccc(Cl)cc4F)c3C1)C2 (stereo not drawn) [Example 8-1, tert-Butyl 3-(2-(1-(4-chloro-2-fluorobenzyl)-3-(trifluoromethyl)-4,5-dihydro-1H-pyrazolo[3,4-c]pyridin-6(7H)-yl)-2-oxoethyl)-8-azabicyclo[3.2.1]octane-8-carboxylate] | ≤ 0.1
27 | O=C(O)C1CC2COCC(C1)N2CC(=O)N1CCc2c(C(F)(F)F)nn(Cc3ccc(F)cc3)c2C1 (stereo not drawn) [Example 13-26, 9-(2-(1-(4-Fluorobenzyl)-3-(trifluoromethyl)-4,5-dihydro-1H-pyrazolo[3,4-c]pyridin-6(7H)-yl)-2-oxoethyl)-3-oxa-9-azabicyclo[3.3.1]nonane-7-carboxylic acid TFA salt] | ≤ 0.1
